One experiment addresses T1, MOB1A (Homo sapiens, UniProt Q9H8S9).
T1 construct: MOB1A (2–216, NP_060691); 6xHis (N, cleaved yes); GST (N, cleaved yes); made in house; host or cells: E. coli BL21 (DE3) CodonPlus RIL
T1 sequence (Q9H8S9 2-216): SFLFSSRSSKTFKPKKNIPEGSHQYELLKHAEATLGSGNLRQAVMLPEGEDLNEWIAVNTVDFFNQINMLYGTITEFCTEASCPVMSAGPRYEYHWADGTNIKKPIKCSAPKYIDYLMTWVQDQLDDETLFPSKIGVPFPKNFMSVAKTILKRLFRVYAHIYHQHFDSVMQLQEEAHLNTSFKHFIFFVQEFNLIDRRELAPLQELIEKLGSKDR
Put plainly: Fluorescence polarization peptide binding assay, MOB1A wild-type. The settings on record: FP. From the text: (§1) Human MST1 kinase domain (amino acids 2–326, corresponding to NCBI RefSeq protein NP_006273), MST2 kinase domain (2–322, NP_006272), MOB1B (2–216, NP_001231695), MOB1A (2–216, NP_060691) wild-type and indicated MOB1A mutant proteins, MOB2 (2–237, NP_001165694), MOB3A (2–217, NP_570719), MOB3B (2–216, NP_079037), MOB3C (2–216, NP_660322), MOB4 (2–225, NP_056202), MOB4^RRR→AAA (2–225), and yeast Mob1 (79–314, NP_012160) were expressed in E. coli BL21 (DE3) CodonPlus RIL cells as N-terminal dual 6xhistidine (HIS) and glutathione S-transferase (GST), Tobacco Etch Virus (TEV) cleavable, fusion proteins using a modified pETM-30 vector. MOB wild-type and mutants were purified in batch on glutathione-Sepharose resin (GE Healthcare, Uppsala, Sweden) and eluted by cleavage from the affinity tags with HIS tagged TEV protease. TEV protease was removed from the eluted protein by subtractive immobilized-metal affinity chromatography. Cleaved protein was then concentrated and buffer exchanged by size exclusion chromatography (SEC) using a Superdex 75 120 ml column (GE Healthcare). For GST pull-downs and Far-Western analysis, the TEV cleavage step was omitted.
MST1 phosphopeptides encompassing pT353 and pT367 (15-mers) used for crystallization and FITC labeled nonphosphorylated and phosphorylated MST1 T353 peptides, T367 peptides, T329-T340 peptides, T380-T387 peptides and optimized Nud1-like peptides for fluorescence polarization binding experiments were purchased from Biomatik (Cambridge, ON). Peptide sequences used for crystallization studies are: T353, […](p)TMIEH and T367, […](p)TMVINA. All peptides used for biophysical studies are listed in supplemental Table S1.
Twelve-point fluorescence polarization binding measurements were performed in triplicate in 384-well plate format using an Analyst HT (Artisan-Scientific, Sunnyvale, CA) reader. Each 20 μl measurement condition contained 20 nM FITC labeled MST1 peptide or Nud1-like peptide and the indicated concentration of MOB proteins in 25 mM HEPES pH 7.5, 150 mM NaCl, 2 mM DTT, and 1 mg/ml bovine serum albumin (BSA). Kd values were obtained by fitting the results to a one site-specific binding model using GraphPad Prism.

The target in another experiment is T2, MOB1A KRR→3A mutant (Homo sapiens, UniProt Q9H8S9, K153A/R154A/R157A).
T2 construct: MOB1A (2–216, NP_060691) wild-type and indicated MOB1A mutant proteins; 6xHis (N, cleaved yes); GST (N, cleaved yes); made in house; host or cells: E. coli BL21 (DE3) CodonPlus RIL
T2 sequence (Q9H8S9 2-216 K153A/R154A/R157A): T1 sequence (Q9H8S9 2-216) with K152A, R153A, R156A
Put plainly: Fluorescence polarization peptide binding assay, MOB1A KRR→3A mutant (K153, R154, R157 to alanine). Conditions: Fig. 2B, MOB1A KRR→3A (K153, R154, R157 to alanine); FP, 20 nM FITC labeled peptide, pH 7.5; n = 3; N.D. = Kd could not be determined.
Text: as §1, with “TEV protease was removed from the eluted protein by subtractive immobilized-metal affinity chromatography. Cleaved protein was then concentrated and buffer exchanged by size exclusion chromatography (SEC) using a Superdex 75 120 ml column (GE Healthcare). For GST pull-downs and Far-Western analysis, the TEV cleavage step was omitted.” left out
MST1 phosphopeptides encompassing pT353 and pT367 (15-mers) used for crystallization and FITC labeled nonphosphorylated and phosphorylated MST1 T353 peptides, T367 peptides, T329-T340 peptides, T380-T387 peptides and optimized Nud1-like peptides for fluorescence polarization binding experiments were purchased from Biomatik (Cambridge, ON). […]
Twelve-point fluorescence polarization binding measurements were performed in triplicate in 384-well plate format using an Analyst HT (Artisan-Scientific, Sunnyvale, CA) reader. […]
On the technique in general: Fluorescence polarisation rises when a labelled molecule tumbles more slowly, as on binding a larger partner.

For the next experiment, the system named is GST-MOB1B. Put plainly: Peptide array Far-Western overlay with GST-MOB1B. The settings on record: cellulose-bound 15-mer peptide SPOT array probed with 1 μg GST-MOB1B at 20 °C overnight, anti-GST HRP detection. The class given is binding, human. The protocol:
Cellulose-bound peptide arrays were prepared employing Fmoc solid phase peptide synthesis using a MultiPep-RSi-Spotter (INTAVIS, Köln, Germany) according to the SPOT synthesis method provided by the manufacturer, and previously described ([29]). Peptides were synthesized on amino-functionalized cellulose membranes (Whatman™ Chromatography paper Grade 1CHR, GE Healthcare Life Sciences #3001–878) and the presence of SPOTed peptides was confirmed by ultraviolet light (UV, λ = […]). Peptide sequences were chosen for each of the phosphorylated sites within the sequence encompassing residues 327 to 487 of MST1 as reported in PhosphositePlus (31/01/2014, ref 30). In addition, 15 amino acid-long peptides spanning the entire MST1 linker region (aa 327–487) were also synthesized in both phospho- and nonphosphorylated versions (for every serine, threonine, or tyrosine position; supplemental Fig. S1). Subsequent arrays were generated by alanine scanning from the pT353 and pT367 peptide sequences. The peptide arrays were soaked in 100% ethanol and blocked in 5% milk in H2O for 6 h at 20 °C. One microgram of GST-MOB1B (or GST alone) was used to probe the arrays at 20 °C overnight. Following washes with PBS plus 0.1% Tween-20, the arrays were blocked again in 5% milk for 1 h. […]

For another experiment, the target named is yeast Mob1. Conditions: yeast Mob1 binding to Nud1 short linear phosphopeptide motif; cited from earlier work. From the text:
Key to its function as a Hippo pathway activator is the ability of MOB1 to bind directly to MST1 and MST2 kinases. Recent structural studies provided key insight into the underlying mechanism of binding.

The mark [1] stands for this setting: Fig. 3D summary of MST1 phosphopeptide affinities for MOB1A, read-out: Kd.
[2] abbreviates: 20 nM FITC labeled peptide, recombinant wild-type MOB1A, pH 7.5.

Residue numbers refer to the chain shown, from its start. Like-named read-outs stand apart in the source and are kept apart here. Where a SMILES comes first, the peptide text is derived from it.

The text below walks through data of paper PMC5461540, “MOB1 Mediated Phospho-recognition in the Core Mammalian Hippo Pathway” (Molecular & Cellular Proteomics : MCP, 2017).

Usually Kd stands for a measure of binding affinity in units of concentration.

Consider `CSCC[C@H](NC(=O)[C@H](CCC(=O)O)NC(=O)[C@H](CC(=O)O)NC(=O)CNC(=O)[C@@H](NC(=O)[C@H](C)NC(=O)[C@H](CCCNC(=N)N)NC(=O)[C@@H](NC(=O)[C@H](CCSC)NC(=O)[C@@H](NC(=O)CN)[C@@H](C)O)C(C)C)C(C)C)C(=O)NCC(=O)N[C@H](C(=O)N[C@H](C(=O)N[C@@H](CCCNC(=N)N)C(=O)O)C(C)C)[C@@H](C)OP(=O)(O)O` [MST1 T329/pT340 peptide] (HELM PEPTIDE1{G.T.M.V.R.A.V.G.D.E.M.G.[C[C@@H](OP(=O)(O)O)[C@H](N[*:1])C(=O)[*:2]].V.R}$$$$V2.0), for which, at MOB1A (setting [1]), the Kd stood at 66.1 µM. In the case of `CSCC[C@H](NC(=O)[C@H](CCC(=O)O)NC(=O)[C@H](CC(=O)O)NC(=O)CNC(=O)[C@@H](NC(=O)[C@H](C)NC(=O)[C@H](CCCNC(=N)N)NC(=O)[C@@H](NC(=O)[C@H](CCSC)NC(=O)[C@@H](NC(=O)CN)[C@@H](C)OP(=O)(O)O)C(C)C)C(C)C)C(=O)NCC(=O)N[C@H](C(=O)N[C@H](C(=O)N[C@@H](CCCNC(=N)N)C(=O)O)C(C)C)[C@@H](C)O` [MST1 pT329/T340 peptide] (HELM PEPTIDE1{G.[C[C@@H](OP(=O)(O)O)[C@H](N[*:1])C(=O)[*:2]].M.V.R.A.V.G.D.E.M.G.T.V.R}$$$$V2.0), the Kd at MOB1A (setting [1]) turned out to be 46.5 µM. Regarding `CSCC[C@H](NC(=O)[C@H](CCC(=O)O)NC(=O)[C@H](CC(=O)O)NC(=O)CNC(=O)[C@@H](NC(=O)[C@H](C)NC(=O)[C@H](CCCNC(=N)N)NC(=O)[C@@H](NC(=O)[C@H](CCSC)NC(=O)[C@@H](NC(=O)CN)[C@@H](C)OP(=O)(O)O)C(C)C)C(C)C)C(=O)NCC(=O)N[C@H](C(=O)N[C@H](C(=O)N[C@@H](CCCNC(=N)N)C(=O)O)C(C)C)[C@@H](C)OP(=O)(O)O` [MST1 pT329/pT340 peptide] (HELM PEPTIDE1{G.[C[C@@H](OP(=O)(O)O)[C@H](N[*:1])C(=O)[*:2]].M.V.R.A.V.G.D.E.M.G.[C[C@@H](OP(=O)(O)O)[C@H](N[*:1])C(=O)[*:2]].V.R}$$$$V2.0), the Kd at MOB1A (Supplemental Fig. 4A, 4B, MOB1A, differentially phosphorylated MST1 15-mer peptides, mean ± SEM (n=3), read-out: kd) turned out to be 49 ± 6 µM. For `CC[C@H](C)[C@H](NC(=O)[C@H](CCSC)NC(=O)[C@@H](NC(=O)[C@H](CC(N)=O)NC(=O)[C@H](C)NC(=O)CNC(=O)[C@H](CC(=O)O)NC(=O)[C@@H](NC(=O)[C@H](CCSC)NC(=O)[C@@H](NC(=O)[C@H](CO)NC(=O)[C@H](C)NC(=O)[C@@H](N)C(C)C)[C@@H](C)O)[C@@H](C)O)[C@@H](C)O)C(=O)N[C@@H](CCC(=O)O)C(=O)N[C@@H](Cc1c[nH]cn1)C(=O)O` [T353] (H-VASTMTDGANTMIEH-OH), the Kd result at MOB1A (setting [2]) was “no detectable binding”. Same read-out and setting: to `CC[C@H](C)[C@H](NC(=O)[C@@H](NC(=O)[C@H](CCSC)NC(=O)[C@@H](NC(=O)CNC(=O)[C@H](CC(C)C)NC(=O)[C@H](CCC(N)=O)NC(=O)[C@H](CO)NC(=O)[C@@H]1CCCN1C(=O)[C@H](CC(C)C)NC(=O)[C@@H](NC(=O)[C@H](CC(=O)O)NC(=O)[C@@H](N)CC(=O)O)[C@@H](C)O)[C@@H](C)O)C(C)C)C(=O)N[C@@H](CC(N)=O)C(=O)N[C@@H](C)C(=O)O` [T367] (H-DDTLPSQLGTMVINA-OH) belongs “no detectable binding”. Turning to `CC[C@H](C)[C@H](NC(=O)[C@H](CCSC)NC(=O)[C@@H](NC(=O)[C@H](CC(N)=O)NC(=O)[C@H](C)NC(=O)CNC(=O)[C@H](CC(=O)O)NC(=O)[C@@H](NC(=O)[C@H](CCSC)NC(=O)[C@@H](NC(=O)[C@H](CO)NC(=O)[C@H](C)NC(=O)[C@@H](N)C(C)C)[C@@H](C)O)[C@@H](C)O)[C@@H](C)OP(=O)(O)O)C(=O)N[C@@H](CCC(=O)O)C(=O)N[C@@H](Cc1c[nH]cn1)C(=O)O` [pT353] (HELM PEPTIDE1{V.A.S.T.M.T.D.G.A.N.[C[C@@H](OP(=O)(O)O)[C@H](N[*:1])C(=O)[*:2]].M.I.E.H}$$$$V2.0), the Kd result at MOB1A KRR→3A mutant is “no measurable binding”; on MOB1A (20 nM FITC labeled peptide, recombinant wild-type MOB1A, pH 7.5, read-out: Kd), 0.28 µM.

For “AKPSFLEYFEQKEKE [MST1 residues 391 to 405]”, the “binding signal in Far-Western peptide array” value with GST-MOB1B is “sufficient to bind to MOB1B”. As for TVLNNYSpTVHQKVPS, the Kd at yeast Mob1 is 2.4 µM.
